ChEMBL document CHEMBL4507276 (2021)

Assays:
[1] = target: Cholecystokinin receptor type A (Homo sapiens) (UniProt P32238); assay: CCKA/H Cerep selectivity data (BI); conditions: Compound concentration 20.0 uM
[2] = target: T1, Muscarinic acetylcholine receptor M4 (Homo sapiens) (UniProt P08173); assay: M4/H Cerep selectivity data (BI); conditions: Compound concentration 20.0 uM
T1 sequence (whole entry): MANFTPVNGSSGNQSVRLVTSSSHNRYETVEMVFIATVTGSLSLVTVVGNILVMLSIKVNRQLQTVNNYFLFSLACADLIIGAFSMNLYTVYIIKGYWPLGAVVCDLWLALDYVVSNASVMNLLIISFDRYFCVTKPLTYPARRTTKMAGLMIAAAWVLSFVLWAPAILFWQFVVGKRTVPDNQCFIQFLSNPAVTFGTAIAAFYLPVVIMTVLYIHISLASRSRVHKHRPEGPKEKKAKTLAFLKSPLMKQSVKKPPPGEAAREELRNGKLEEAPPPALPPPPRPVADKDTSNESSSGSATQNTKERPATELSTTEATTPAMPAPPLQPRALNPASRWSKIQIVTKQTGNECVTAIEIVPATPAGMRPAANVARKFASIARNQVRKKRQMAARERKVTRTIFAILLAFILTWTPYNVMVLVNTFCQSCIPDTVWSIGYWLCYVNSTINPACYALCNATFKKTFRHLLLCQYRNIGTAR

[3] = target: Melanocortin receptor 3 (Homo sapiens) (UniProt P41968); assay: MC3H_AGON Cerep selectivity data (BI); conditions: filed as agonist, Compound concentration 20.0 uM
Melanocortin receptor 3 (Homo sapiens), sequence (P41968 whole entry): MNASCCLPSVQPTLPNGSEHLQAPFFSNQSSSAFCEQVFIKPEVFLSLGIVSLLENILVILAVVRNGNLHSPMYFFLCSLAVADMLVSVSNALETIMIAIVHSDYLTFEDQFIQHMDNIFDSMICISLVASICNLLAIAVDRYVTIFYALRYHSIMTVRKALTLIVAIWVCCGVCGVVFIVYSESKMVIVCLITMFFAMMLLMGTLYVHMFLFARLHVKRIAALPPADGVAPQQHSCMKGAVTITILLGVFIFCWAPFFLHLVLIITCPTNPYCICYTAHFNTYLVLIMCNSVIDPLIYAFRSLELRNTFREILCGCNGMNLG

[4] = target: CDK8/Cyclin C (Homo sapiens) (UniProt P49336+P24863); assay: CDK8_CYCLINC Invitrogen selectivity data (BI); format: protein-complex assay; conditions: Compound concentration 3.0 uM
[5] = target: CDK9/Cyclin K (Homo sapiens) (UniProt P50750+O75909); assay: CDK9_CYCLINK Invitrogen selectivity data (BI); format: protein-complex assay; conditions: Compound concentration 3.0 uM
[6] = target: Casein kinase I isoform gamma-2 (Homo sapiens) (UniProt P78368); assay: CSNK1G2 Invitrogen selectivity data (BI); conditions: Compound concentration 3.0 uM
Casein kinase I isoform gamma-2 (Homo sapiens), sequence (P78368 whole entry, looked up, canonical isoform): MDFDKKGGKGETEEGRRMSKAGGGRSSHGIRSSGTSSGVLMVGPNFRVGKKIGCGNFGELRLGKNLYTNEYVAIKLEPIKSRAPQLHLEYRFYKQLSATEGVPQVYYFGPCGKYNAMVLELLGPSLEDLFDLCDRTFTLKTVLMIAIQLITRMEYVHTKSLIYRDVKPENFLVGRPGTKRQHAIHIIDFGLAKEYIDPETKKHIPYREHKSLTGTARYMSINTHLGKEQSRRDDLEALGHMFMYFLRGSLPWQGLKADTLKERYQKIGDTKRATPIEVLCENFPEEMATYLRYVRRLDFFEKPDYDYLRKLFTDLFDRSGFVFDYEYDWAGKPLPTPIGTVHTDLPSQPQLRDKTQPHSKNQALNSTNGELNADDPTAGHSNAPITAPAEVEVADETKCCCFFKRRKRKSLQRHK

[7] = target: Casein kinase II subunit alpha (Homo sapiens) (UniProt P68400); assay: CSNK2A1 Invitrogen selectivity data (BI); conditions: Compound concentration 3.0 uM
Casein kinase II subunit alpha (Homo sapiens), sequence (P68400 whole entry, looked up): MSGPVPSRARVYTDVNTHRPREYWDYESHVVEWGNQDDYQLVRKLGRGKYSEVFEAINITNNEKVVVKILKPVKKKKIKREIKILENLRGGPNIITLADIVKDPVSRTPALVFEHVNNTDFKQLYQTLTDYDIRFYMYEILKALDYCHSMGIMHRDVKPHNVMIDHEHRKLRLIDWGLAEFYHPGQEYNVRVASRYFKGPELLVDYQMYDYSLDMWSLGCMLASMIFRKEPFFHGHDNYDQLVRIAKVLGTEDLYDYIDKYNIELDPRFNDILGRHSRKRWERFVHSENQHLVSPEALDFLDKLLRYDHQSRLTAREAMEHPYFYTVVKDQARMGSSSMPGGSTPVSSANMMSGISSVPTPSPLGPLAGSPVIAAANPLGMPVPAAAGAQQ

[8] = target: Glycogen synthase kinase-3 alpha (Homo sapiens) (UniProt P49840); assay: GSK3A Invitrogen selectivity data (BI); conditions: Compound concentration 3.0 uM
Glycogen synthase kinase-3 alpha (Homo sapiens), sequence (P49840 2-483 limits assumed): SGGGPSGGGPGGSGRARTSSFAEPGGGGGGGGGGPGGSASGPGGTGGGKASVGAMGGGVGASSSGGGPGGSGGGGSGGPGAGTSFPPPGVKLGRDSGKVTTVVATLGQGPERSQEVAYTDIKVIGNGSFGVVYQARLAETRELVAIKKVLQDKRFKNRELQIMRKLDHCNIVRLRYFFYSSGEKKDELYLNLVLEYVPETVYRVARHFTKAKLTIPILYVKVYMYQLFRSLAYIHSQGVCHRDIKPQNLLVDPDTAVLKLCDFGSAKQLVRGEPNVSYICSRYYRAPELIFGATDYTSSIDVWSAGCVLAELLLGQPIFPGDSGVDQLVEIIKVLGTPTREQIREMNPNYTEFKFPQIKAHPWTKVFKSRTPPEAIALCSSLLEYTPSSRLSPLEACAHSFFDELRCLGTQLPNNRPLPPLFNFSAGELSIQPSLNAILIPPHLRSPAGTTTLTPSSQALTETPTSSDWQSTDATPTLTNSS

[9] = target: T2, Inhibitor of nuclear factor kappa-B kinase subunit beta (Homo sapiens) (UniProt O14920); assay: IKBKB Invitrogen selectivity data (BI); conditions: Compound concentration 3.0 uM
T2 sequence (whole entry): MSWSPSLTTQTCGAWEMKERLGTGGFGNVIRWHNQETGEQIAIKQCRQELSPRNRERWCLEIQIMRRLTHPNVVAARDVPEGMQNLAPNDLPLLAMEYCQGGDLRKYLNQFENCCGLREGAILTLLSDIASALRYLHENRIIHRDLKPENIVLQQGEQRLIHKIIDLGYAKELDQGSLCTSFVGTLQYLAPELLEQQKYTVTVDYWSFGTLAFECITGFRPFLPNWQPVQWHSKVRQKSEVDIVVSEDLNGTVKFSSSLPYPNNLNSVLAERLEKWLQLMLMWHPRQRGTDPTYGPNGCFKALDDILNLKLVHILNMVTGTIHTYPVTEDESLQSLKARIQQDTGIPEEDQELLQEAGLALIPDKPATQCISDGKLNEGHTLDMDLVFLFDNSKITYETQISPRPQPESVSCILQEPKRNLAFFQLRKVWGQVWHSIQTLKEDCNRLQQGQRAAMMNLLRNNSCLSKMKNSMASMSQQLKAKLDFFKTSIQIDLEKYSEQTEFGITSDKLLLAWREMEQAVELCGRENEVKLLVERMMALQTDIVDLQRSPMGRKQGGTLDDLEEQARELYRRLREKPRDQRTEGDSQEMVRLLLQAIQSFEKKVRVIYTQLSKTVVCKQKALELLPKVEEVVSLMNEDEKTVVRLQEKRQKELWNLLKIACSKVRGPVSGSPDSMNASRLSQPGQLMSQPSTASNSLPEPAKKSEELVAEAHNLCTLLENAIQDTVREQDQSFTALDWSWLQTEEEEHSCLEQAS

[10] = target: T3, Tyrosine-protein kinase JAK3 (Homo sapiens) (UniProt P52333); assay: JAK3 Invitrogen selectivity data (BI); conditions: Compound concentration 3.0 uM
T3 sequence (whole entry): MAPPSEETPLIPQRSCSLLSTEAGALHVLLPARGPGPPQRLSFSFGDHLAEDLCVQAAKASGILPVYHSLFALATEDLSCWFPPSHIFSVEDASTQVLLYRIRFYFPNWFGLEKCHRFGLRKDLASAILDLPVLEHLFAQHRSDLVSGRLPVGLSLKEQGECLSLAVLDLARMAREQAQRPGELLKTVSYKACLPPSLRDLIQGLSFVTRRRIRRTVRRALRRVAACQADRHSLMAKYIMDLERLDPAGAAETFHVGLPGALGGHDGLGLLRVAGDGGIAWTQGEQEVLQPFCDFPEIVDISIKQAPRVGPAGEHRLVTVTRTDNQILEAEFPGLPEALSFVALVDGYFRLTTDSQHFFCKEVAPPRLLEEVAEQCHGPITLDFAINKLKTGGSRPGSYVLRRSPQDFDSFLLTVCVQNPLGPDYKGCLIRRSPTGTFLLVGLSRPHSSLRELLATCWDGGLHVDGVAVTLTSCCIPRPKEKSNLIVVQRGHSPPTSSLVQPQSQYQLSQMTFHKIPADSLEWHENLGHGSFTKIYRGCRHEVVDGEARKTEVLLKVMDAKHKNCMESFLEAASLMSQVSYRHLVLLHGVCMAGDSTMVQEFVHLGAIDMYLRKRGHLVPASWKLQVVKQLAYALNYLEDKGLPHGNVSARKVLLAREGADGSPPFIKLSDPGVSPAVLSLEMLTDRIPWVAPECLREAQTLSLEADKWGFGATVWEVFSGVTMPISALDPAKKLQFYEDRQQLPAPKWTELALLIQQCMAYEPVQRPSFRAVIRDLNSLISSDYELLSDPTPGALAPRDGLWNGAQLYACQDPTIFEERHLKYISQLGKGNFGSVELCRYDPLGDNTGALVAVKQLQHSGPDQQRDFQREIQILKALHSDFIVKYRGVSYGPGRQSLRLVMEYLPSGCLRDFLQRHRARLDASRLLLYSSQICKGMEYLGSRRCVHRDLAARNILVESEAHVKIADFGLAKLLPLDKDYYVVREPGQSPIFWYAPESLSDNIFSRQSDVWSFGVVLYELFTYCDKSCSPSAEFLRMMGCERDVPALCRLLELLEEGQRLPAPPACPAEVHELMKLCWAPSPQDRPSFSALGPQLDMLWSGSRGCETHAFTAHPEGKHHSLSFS

[11] = organism: Homo sapiens; assay: MLCK Invitrogen selectivity data (BI); conditions: Compound concentration 3.0 uM
[12] = target: Angiopoietin-1 receptor (Homo sapiens) (UniProt Q02763); assay: TEK Invitrogen selectivity data (BI); conditions: Compound concentration 3.0 uM
Angiopoietin-1 receptor (Homo sapiens), sequence (Q02763 whole entry): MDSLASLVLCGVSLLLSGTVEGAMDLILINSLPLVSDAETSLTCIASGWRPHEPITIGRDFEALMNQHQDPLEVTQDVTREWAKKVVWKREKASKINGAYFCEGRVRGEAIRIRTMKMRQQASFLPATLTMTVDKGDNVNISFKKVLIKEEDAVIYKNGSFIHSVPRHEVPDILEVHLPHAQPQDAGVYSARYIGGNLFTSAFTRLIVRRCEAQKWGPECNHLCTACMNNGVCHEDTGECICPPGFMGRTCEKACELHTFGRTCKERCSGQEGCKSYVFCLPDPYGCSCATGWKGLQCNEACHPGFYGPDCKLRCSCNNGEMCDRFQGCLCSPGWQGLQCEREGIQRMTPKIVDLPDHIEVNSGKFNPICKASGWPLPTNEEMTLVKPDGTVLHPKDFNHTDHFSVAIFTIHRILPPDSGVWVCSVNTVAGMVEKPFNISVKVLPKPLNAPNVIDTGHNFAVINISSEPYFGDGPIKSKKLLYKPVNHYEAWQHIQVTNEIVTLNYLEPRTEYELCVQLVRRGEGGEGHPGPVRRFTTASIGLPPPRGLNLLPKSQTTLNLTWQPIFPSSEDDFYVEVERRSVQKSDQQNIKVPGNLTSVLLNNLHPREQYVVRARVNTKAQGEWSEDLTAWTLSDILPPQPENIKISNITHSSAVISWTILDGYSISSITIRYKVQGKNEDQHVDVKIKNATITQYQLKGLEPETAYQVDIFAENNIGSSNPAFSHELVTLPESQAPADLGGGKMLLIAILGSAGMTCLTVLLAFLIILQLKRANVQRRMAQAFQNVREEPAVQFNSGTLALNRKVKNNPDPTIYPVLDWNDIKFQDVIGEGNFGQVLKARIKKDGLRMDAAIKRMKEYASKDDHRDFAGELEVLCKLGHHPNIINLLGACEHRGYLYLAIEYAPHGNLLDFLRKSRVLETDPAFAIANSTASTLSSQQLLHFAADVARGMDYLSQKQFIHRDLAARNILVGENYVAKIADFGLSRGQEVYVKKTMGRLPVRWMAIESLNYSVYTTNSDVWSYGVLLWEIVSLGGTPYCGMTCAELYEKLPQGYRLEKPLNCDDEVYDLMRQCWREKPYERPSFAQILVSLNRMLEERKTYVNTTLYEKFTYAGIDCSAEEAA

Measured: residual activity

Cholecystokinin receptor type A (Homo sapiens), sequence (P32238 whole entry): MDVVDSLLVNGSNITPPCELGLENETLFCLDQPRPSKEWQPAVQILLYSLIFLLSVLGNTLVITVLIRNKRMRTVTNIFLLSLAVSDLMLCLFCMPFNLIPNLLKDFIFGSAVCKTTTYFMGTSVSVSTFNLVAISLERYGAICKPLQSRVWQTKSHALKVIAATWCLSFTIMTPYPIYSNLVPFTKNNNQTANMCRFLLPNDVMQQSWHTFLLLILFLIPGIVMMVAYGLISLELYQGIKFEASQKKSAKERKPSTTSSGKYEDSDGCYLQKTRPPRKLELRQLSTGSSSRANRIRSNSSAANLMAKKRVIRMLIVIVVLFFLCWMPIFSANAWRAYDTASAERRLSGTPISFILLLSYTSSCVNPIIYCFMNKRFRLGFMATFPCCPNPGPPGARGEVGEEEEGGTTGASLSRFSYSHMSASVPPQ

CN(C)C(=O)Cn1cc(-c2nc([C@@](C)(c3ccc(-c4cnc(N)nc4)cc3)C3CC3)no2)cn1 [BI 665915]
inactive: [1] 113% | [2] 103% | [3] 94% | [4] 94% | [5] 96% | [6] 98.5% | [7] 97% | [8] 96% | [9] 96.5% | [10] 96.5% | [11] 98% | [12] 97%
